Patent US11214594B2, “Antimicrobial peptide having synergistic antibacterial effect with antibiotics on multidrug resistant bacteria, and use thereof” (priority 2016, dated 2022)
Values after ≈ are worked out from the molar mass of the structure shown. Where two headings read alike, the source gives them in different places. Where a SMILES comes first, the peptide text is derived from it.

Tests used:
[1] = test system: B. subtilis; assay: microbe, parasite or virus in culture; type: cell-based, Bacillus subtilis; settings: Bacillus subtilis, read-out: Minimal inhibitory concentration MIC
Experimental: (§1) For the antibacterial activity, a minimal inhibitory concentration (MIC) of a peptide in which fungus bodies were not split in an MH medium with sufficient nutrients was measured.
(§2) Specifically, the strains described in the following [Table 2] were purchased and diluted with an MH medium such that the number of bacteria was 2×10^6 colony-forming units (CFUs), 100 μl of each of the diluted strains was aliquoted into a 96-well microtiter plate, and then 100 μl of a peptide solution diluted with the MH medium (solution diluted stepwise at 2: 1) was added to each well.

[2] = test system: E. coli; assay: MIC of antibiotic during combined treatment with antimicrobial peptide; type: cell-based, Escherichia coli; settings: E. coli
Experimental: (§3) Thereafter, the MIC value of each mixed solution was determined by diluting the antibiotic solution with the MH medium, adding 50 μl of the diluted solution to each well, and performing an experiment even under a reversed condition.

[3] = test system: S. epidermidis; assay: microbe, parasite or virus in culture; type: cell-based, Staphylococcus epidermidis; settings: Staphylococcus epidermidis, read-out: Minimal inhibitory concentration MIC
Experimental: as §1, §2

[4] = test system: A. baumannii; assay: MIC of antibiotic during combined treatment with antimicrobial peptide; type: cell-based, Acinetobacter baumannii; settings: A. baumannii
Experimental: as §3

[5] = test system: S. typhimurium; assay: microbe, parasite or virus in culture; type: cell-based, Salmonella typhimurium; settings: Salmonella enterica, read-out: Minimal inhibitory concentration MIC
Experimental: as §1, §2

[6] = test system: A. baumannii; assay: microbe, parasite or virus in culture; type: cell-based, Acinetobacter baumannii; settings: for Antibiotic MIC, compound alone: no peptide; for MIC: Acinetobacter baumannii, read-out: Minimal inhibitory concentration MIC
Experimental: as §1, §2

[7] = test system: MDRAB 12035; assay: microbe, parasite or virus in culture; type: cell-based, Acinetobacter baumannii; settings: for Antibiotic MIC, compound alone: MDRAB 12035, no peptide
Experimental: as §1, §2

[8] = test system: E. coli; assay: microbe, parasite or virus in culture; type: cell-based, Escherichia coli
Experimental: as §1, §2

[9] = test system: MDREC 1229; assay: microbe, parasite or virus in culture; type: cell-based, Escherichia coli; settings: for MIC: Escherichia coli, read-out: Minimal inhibitory concentration MIC; for Antibiotic MIC, compound alone: no peptide
Experimental: as §1, §2

[10] = test system: S. aureus; assay: microbe, parasite or virus in culture; type: cell-based, Staphylococcus aureus; settings: Staphylococcus aureus, read-out: Minimal inhibitory concentration MIC
Experimental: as §1, §2

[11] = test system: P. aeruginosa; assay: microbe, parasite or virus in culture; type: cell-based, Pseudomonas aeruginosa; settings: Pseudomonas aeruginosa, read-out: Minimal inhibitory concentration MIC
Experimental: as §1, §2

[12] = test system: A. baumannii; assay: MIC of antimicrobial peptide during combined treatment with antibiotic; type: cell-based, Acinetobacter baumannii
Experimental: Specifically, the strains described in [Table 2] were prepared and diluted with an MH medium such that the number of bacteria was 2×10^6 colony-forming units (CFUs) per 1 ml, 100 μl of the diluted strains was each aliquoted into a 96-well microtiter plate, and then 50 μl of a peptide solution diluted with the MH medium from the MIC value (solution diluted stepwise at 2: 1) was added to each well. Thereafter, the MIC value of each mixed solution was determined by diluting the antibiotic solution with the MH medium, adding 50 μl of the diluted solution to each well, and performing an experiment even under a reversed condition.

[13] = with PapMA-1 at 16 μg/ml (1/4 of peptide MIC)
[14] = with PapMA-2 at 16 μg/ml (1/4 of peptide MIC)
[15] = with Papiliocin 1 μg/ml (Conc./MIC 1/8)
[16] = with Papiliocin 2 μg/ml (Conc./MIC 1/4)
[17] = with Papiliocin 4 μg/ml (Conc./MIC 1/2)
[18] = with Papiliocin 8 μg/ml (Conc./MIC 1)
[19] = E. coli, compound alone (no peptide)

Row | Compound | MIC ([1]; B. subtilis, agent alone) [µg/mL] | MIC of antibiotic in mixture as fraction of the MIC of the antibiotic alone ([2]; with PapMA-1 at 16 μg/ml) | MIC value of antibiotic mixed with peptide [2, 13] [µg/mL] | MIC value of antibiotic mixed with peptide [2, 14] [µg/mL] | MIC of antibiotic in mixture as fraction of the MIC of the antibiotic alone ([2]; with PapMA-7 at 16 μg/ml) | MIC Concentration of antibiotic [2, 15] [µg/mL] | MIC Concentration of antibiotic [2, 16] [µg/mL] | MIC Concentration of antibiotic [2, 17] [µg/mL] | MIC Concentration of antibiotic [2, 18] [µg/mL] | MIC ([3]; S. epidermidis, agent alone) [µg/mL] | MIC of antibiotic administered in combination with peptide ([4]; with PapMA-1 at 8 μg/ml) [µg/mL] | MIC of antibiotic in combination as fraction of the MIC of the antibiotic alone ([4]; with PapMA-1 at 8 μg/ml) | MIC Concentration of antibiotic [4, 15] [µg/mL] | MIC Concentration of antibiotic [4, 16] [µg/mL] | MIC Concentration of antibiotic [4, 17] [µg/mL] | MIC Concentration of antibiotic [4, 18] [µg/mL] | MIC ([5]; S. typhimurium, agent alone) [µg/mL] | Antibiotic MIC, compound alone ([6]; A. baumannii) [µg/mL] | Antibiotic MIC, compound alone [7] [µg/mL] | MIC of antibiotic administered in combination with peptide ([4]; with PapMA-7 at 8 μg/ml) [µg/mL] | further results
1 | CC[C@H]1OC(=O)[C@H](C)[C@@H](O[C@H]2C[C@@](C)(OC)[C@@H](O)[C@H](C)O2)[C@H](C)[C@@H](O[C@@H]2O[C@H](C)C[C@H](N(C)C)[C@H]2O)[C@](C)(O)C[C@@H](C)C(=O)[C@H](C)[C@@H](O)[C@]1(C)O [Erythromycin, erythromycin, reference compound] | 0.25 (≈ 0.341 µM) | 1/64 | 2 | 0.5 | 1/512 | 64 | 64 | 64 | 0 | 1 (≈ 1.36 µM) | 0.5 | 1/64 | 32 | 16 | 16 | 0 | 64 (≈ 87.2 µM) | 32 | 32 |  | MIC ([6]; A. baumannii, agent alone): 32 µg/mL (≈ 43.6 µM)
2 | CN[C@H](CC(C)C)C(=O)N[C@H]1C(=O)N[C@@H](CC(N)=O)C(=O)N[C@H]2C(=O)N[C@H]3C(=O)N[C@H](C(=O)N[C@H](C(=O)O)c4cc(O)cc(O)c4-c4cc3ccc4O)[C@H](O)c3ccc(c(Cl)c3)Oc3cc2cc(c3O[C@@H]2O[C@H](CO)[C@@H](O)[C@H](O)[C@H]2O[C@H]2C[C@](C)(N)[C@H](O)[C@H](C)O2)Oc2ccc(cc2Cl)[C@H]1O [Vancomycin, vancomycin, reference compound] |  |  |  |  |  | 512 | 256 | 256 | 0 |  |  |  | 512 | 256 | 256 | 0 |  | 1024 | >1024 | 2 | MIC [1]: 1 µg/mL (≈ 0.69 µM); MIC [3]: 1 µg/mL (≈ 0.69 µM); MIC of antibiotic in combination as fraction of the MIC of the antibiotic alone ([4]; with PapMA-7 at 8 μg/ml): 1/512; MIC ([5]; TYPHIMURIUM): 512 µg/mL (≈ 353 µM); Antibiotic MIC, Vancomycin [8, 19]: 1024 µg/mL; MIC ([8]; Escherichia coli, 16 h, read-out: Minimal inhibitory concentration MIC): 1020 µg/mL (≈ 707 µM); MIC [9]: > 1020 µg/mL; Antibiotic MIC, compound alone ([9]; MDREC 1229): >1024 µg/mL; MIC [10]: 1 µg/mL (≈ 0.69 µM); MIC [6]: 1020 µg/mL (≈ 707 µM); MIC ([7]; Acinetobacter baumannii, read-out: Minimal inhibitory concentration MIC): > 1020 µg/mL; MIC [11]: > 1020 µg/mL
3 | CC[C@H](C)[C@H](NC(=O)[C@H](CCCCN)NC(=O)[C@H](Cc1c[nH]c2ccccc12)NC(=O)[C@@H](N)CCCNC(=N)N)C(=O)N[C@@H](Cc1ccccc1)C(=O)N[C@@H](CCCCN)C(=O)N[C@@H](CCCCN)C(=O)N[C@H](C(=O)N1CCC[C@H]1C(=O)N[C@@H](CCCCN)C(=O)N[C@@H](CC(C)C)C(=O)N[C@@H](CC(C)C)C(=O)N[C@@H](Cc1c[nH]cn1)C(=O)N[C@@H](CCC(=O)O)C(=O)N[C@@H](Cc1ccccc1)C(=O)N[C@@H](CCCCN)C(=O)N[C@@H](CCCCN)C(=O)N[C@@H](Cc1ccccc1)C(N)=O)[C@@H](C)CC [Pap-MA-12] (H-RWKIFKKIPKLLHEFKKF-NH2; N-terminus assumed) |  |  |  |  |  |  |  |  |  |  |  |  |  |  |  |  |  |  |  |  | Peptide MIC during treatment with antibiotic ([12]; erythromycin 4 μg/ml (Conc./MIC 1/8)): 4 µg/mL; Peptide MIC during treatment with antibiotic ([12]; erythromycin 8 μg/ml (Conc./MIC 1/4)): 2 µg/mL; Peptide MIC during treatment with antibiotic ([12]; erythromycin 16 μg/ml (Conc./MIC 1/2)): 1 µg/mL; Peptide MIC during treatment with antibiotic ([12]; erythromycin 32 μg/ml (Conc./MIC 1)): 0 µg/mL; Peptide MIC during treatment with antibiotic ([12]; linezolid 32 μg/ml (Conc./MIC 1/8)): 2 µg/mL; Peptide MIC during treatment with antibiotic ([12]; linezolid 64 μg/ml (Conc./MIC 1/4)): 2 µg/mL; Peptide MIC during treatment with antibiotic ([12]; linezolid […] (Conc./MIC 1)): 0 µg/mL; Peptide MIC during treatment with antibiotic ([12]; linezolid […] (Conc./MIC 1/2)): 1 µg/mL; Peptide MIC during treatment with antibiotic ([12]; vancomycin 512 μg/ml (Conc./MIC 1/2)): 0.25 µg/mL; Peptide MIC during treatment with antibiotic ([12]; vancomycin 1024 μg/ml (Conc./MIC 1)): 0 µg/mL; Peptide MIC during treatment with antibiotic ([12]; vancomycin […] (Conc./MIC 1/4)): 0.25 µg/mL; Peptide MIC during treatment with antibiotic ([12]; vancomycin […] (Conc./MIC 1/8)): 2 µg/mL; Peptide MIC, peptide alone [6]: 8 µg/mL
4 | CC(=O)NC[C@H]1CN(c2ccc(N3CCOCC3)c(F)c2)C(=O)O1 [Linezolid, linezolid, reference compound] | 1 (≈ 2.96 µM) | 1/16 | 16 | 8 | 1/256 | 128 | 128 | 128 | 0 | 1 (≈ 2.96 µM) | 8 | 1/32 | 128 | 64 | 64 | 0 | 256 (≈ 759 µM) | 256 | 512 | 1 | MIC of antibiotic in mixture as fraction of the MIC of the antibiotic alone ([2]; with PapMA-2 at 16 μg/ml): 1/32; MIC value of antibiotic mixed with peptide ([2]; with PapMA-7 at 16 μg/ml (1/2 of peptide MIC)): 1 µg/mL; MIC of antibiotic in combination as fraction of the MIC of the antibiotic alone ([4]; with PapMA-7 at 8 μg/ml): 1/256; Antibiotic MIC, Linezolid [8, 19]: 256 µg/mL; MIC ([9]; MDREC 1229, agent alone): 512 µg/mL (≈ 1520 µM); Antibiotic MIC, compound alone ([9]; MDREC 1229): 512 µg/mL; MIC ([11]; P. aeruginosa, agent alone): > 1020 µg/mL
